What follows are molecules tested against TrkA (Homo sapiens (Human), UniProt P04629) (assay: TrkA Omnia Assay). Details: averaged IC50; 20 nM enzyme, 500 μM ATP, 10 μM peptide substrate.
TrkA, sequence (P04629 33-796): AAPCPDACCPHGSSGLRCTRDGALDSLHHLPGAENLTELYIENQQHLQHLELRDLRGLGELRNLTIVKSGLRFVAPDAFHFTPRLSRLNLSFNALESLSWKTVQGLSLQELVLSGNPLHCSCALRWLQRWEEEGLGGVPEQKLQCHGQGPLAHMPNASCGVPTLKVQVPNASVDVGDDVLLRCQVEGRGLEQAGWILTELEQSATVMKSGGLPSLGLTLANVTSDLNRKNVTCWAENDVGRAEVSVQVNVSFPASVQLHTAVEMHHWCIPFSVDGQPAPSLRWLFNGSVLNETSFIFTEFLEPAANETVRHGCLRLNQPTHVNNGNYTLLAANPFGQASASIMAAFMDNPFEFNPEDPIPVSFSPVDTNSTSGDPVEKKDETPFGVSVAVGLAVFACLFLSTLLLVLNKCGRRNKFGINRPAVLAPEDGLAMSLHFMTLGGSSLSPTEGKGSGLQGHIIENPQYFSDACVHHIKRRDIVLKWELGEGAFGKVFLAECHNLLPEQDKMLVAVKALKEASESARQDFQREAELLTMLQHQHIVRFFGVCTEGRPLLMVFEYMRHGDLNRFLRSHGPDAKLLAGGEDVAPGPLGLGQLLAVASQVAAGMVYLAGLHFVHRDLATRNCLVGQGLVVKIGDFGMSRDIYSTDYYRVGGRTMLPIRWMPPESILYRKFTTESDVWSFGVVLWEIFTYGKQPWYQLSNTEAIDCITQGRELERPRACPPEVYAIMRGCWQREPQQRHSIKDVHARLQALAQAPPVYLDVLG
Type: biochemical
In short: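 Recombinant TrkA (20 nM) preincubated 10 min at ambient temperature with compound, then Omnia Tyr Peptide #4 (10 μM) and ATP (500 μM) added in 25 mM MOPS pH 7.5, 5 mM MgCl2, 0.005% Triton X-100. Fluorescence (ex 360/em 485 nm) followed continuously for 70 min; IC50 from initial rates by 4- or 5-parameter logistic fit.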
Molecule `COCCN1C[C@@H](NC(=O)Nc2c(Br)c(-c3ccccc3)nn2C)[C@H](c2ccc(F)c(F)c2)C1` [Example 68, 1-(4-bromo-1-methyl-3-phenyl-1H-pyrazol-5-yl)-3-((3S,4R)-4-(3,4-difluorophenyl)-1-(2-methoxyethyl)pyrrolidin-3-yl)urea] has an IC50 of 1000 to 10000 nM.
`COCCN1C[C@@H](NC(=O)Nc2c(C#N)c(CC#N)nn2-c2ccccc2)[C@H](c2ccc(F)c(F)c2)C1` [Example 70, 1-(4-cyano-3-(cyano-methyl)-1-phenyl-1H-pyrazol-5-yl)-3-((3S,4R)-4-(3,4-difluorophenyl)-1-(2-methoxyethyl)pyrrolidin-3-yl)urea] gave an IC50 of under 100 nM.
`COCCN1C[C@@H](NC(=O)Nc2cc(C(C)(C)C#N)nn2-c2ccccc2)[C@H](c2ccc(F)c(F)c2)C1` [Example 71, 1-(3-(2-cyanopropan-2-yl)-1-phenyl-1H-pyrazol-5-yl)-3-((3S,4R)-4-(3,4-difluorophenyl)-1-(2-methoxyethyl)pyrrolidin-3-yl)urea] showed an IC50 of under 100 nM.
For `CCc1nn(-c2ccccc2)c(NC(=O)N[C@@H]2CN(CCOC)C[C@H]2c2ccc(F)c(F)c2)c1C` [Example 72, 1-((3S,4R)-4-(3,4-difluorophenyl)-1-(2-methoxyethyl)pyrrolidin-3-yl)-3-(3-ethyl-4-methyl-1-phenyl-1H-pyrazol-5-yl)urea], the IC50 was under 100 nM.
For `COCCN1C[C@@H](NC(=O)Nc2cc(-c3cnn(C)c3)nn2-c2ccccc2)[C@H](c2ccc(F)c(F)c2)C1` [Example 73, 1-((3S,4R)-4-(3,4-difluorophenyl)-1-(2-methoxyethyl)pyrrolidin-3-yl)-3-(1′-methyl-1-phenyl-1H,1′H-3,4′-bipyrazol-5-yl)urea], the IC50 was under 100 nM.
For `COCCN1C[C@@H](NC(=O)Nc2c(C)c(OCC3COC3)nn2-c2ccccc2)[C@H](c2ccc(F)c(F)c2)C1` [Example 74, 1-((3S,4R)-4-(3,4-difluorophenyl)-1-(2-methoxyethyl)pyrrolidin-3-yl)-3-(4-methyl-3-(oxetan-3-ylmethoxy)-1-phenyl-1H-pyrazol-5-yl)urea], the IC50 was under 100 nM.
`COCCN1C[C@@H](NC(=O)Nc2c(C)c(OCC3(C)COC3)nn2-c2ccccc2)[C@H](c2ccc(F)c(F)c2)C1` [Example 75, 1-((3S,4R)-4-(3,4-difluorophenyl)-1-(2-methoxyethyl)pyrrolidin-3-yl)-3-(4-methyl-3-((3-methyloxetan-3-yl)methoxy)-1-phenyl-1H-pyrazol-5-yl)urea] showed an IC50 of under 100 nM.
Work on `COCCN1C[C@@H](NC(=O)Nc2c(C)c(OC[C@H]3COC(C)(C)O3)nn2-c2ccccc2)[C@H](c2ccc(F)c(F)c2)C1` [Example 76, 1-((3S,4R)-4-(3,4-difluorophenyl)-1-(2-methoxyethyl)pyrrolidin-3-yl)-3-(3-(((S)-2,2-dimethyl-1,3-dioxolan-4-yl)methoxy)-4-methyl-1-phenyl-1H-pyrazol-5-yl)urea] yielded an IC50 of under 100 nM.
Molecule `COCCN1C[C@@H](NC(=O)Nc2c(C)c(OC[C@@H]3COC(C)(C)O3)nn2-c2ccccc2)[C@H](c2ccc(F)c(F)c2)C1` [Example 77, 1-((3S,4R)-4-(3,4-difluorophenyl)-1-(2-methoxyethyl)pyrrolidin-3-yl)-3-(3-(((R)-2,2-dimethyl-1,3-dioxolan-4-yl)methoxy)-4-methyl-1-phenyl-1H-pyrazol-5-yl)urea] has an IC50 of under 100 nM.
`COCCN1C[C@@H](NC(=O)Nc2c3c(nn2-c2ccccc2)CN(C(=O)OC(C)(C)C)C3)[C@H](c2ccccc2)C1` [Example 79, tert-butyl 3-(3-((3S,4R)-1-(2-methoxyethyl)-4-phenylpyrrolidin-3-yl)ureido)-2-phenyl-4,6-dihydropyrrolo[3,4-c] pyrazole-5(2H)-carboxylate] gave an IC50 of 1000 to 10000 nM.
`COCCN1C[C@@H](NC(=O)Nc2c(C)c(C(C)C)nn2-c2ccccc2)[C@H](c2ccccc2)C1` [Example 80, 1-(3-isopropyl-4-methyl-1-phenyl-1H-pyrazol-5-yl)-3-((3S,4R)-1-(2-methoxy-ethyl)-4-phenylpyrrolidin-3-yl)urea] gave an IC50 of under 100 nM.

Reference: patent publication US10323022B2, “Pyrrolidinyl urea, pyrrolidinyl thiourea and pyrrolidinyl guanidine compounds as TrkA kinase inhibitors” (Array BioPharma Inc., priority 2011, dated 2019)
